The target of the experiment is Phosphoglycerate mutase 1 (PGAM1) (Homo sapiens, UniProt P18669). Description: SPR. The format is binding.
Sequence of Phosphoglycerate mutase 1 (PGAM1) (P18669 2-254): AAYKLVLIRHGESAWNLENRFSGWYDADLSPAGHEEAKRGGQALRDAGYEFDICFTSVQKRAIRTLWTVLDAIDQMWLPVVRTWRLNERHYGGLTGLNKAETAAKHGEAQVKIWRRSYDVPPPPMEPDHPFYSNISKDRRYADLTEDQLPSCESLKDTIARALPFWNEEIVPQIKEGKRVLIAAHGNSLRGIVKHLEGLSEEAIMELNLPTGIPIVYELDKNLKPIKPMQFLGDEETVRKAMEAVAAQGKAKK

For `Cc1cccc2c3c(ccc12)C1=C(C(=O)C3=O)[C@@H](C)CO1` [DHT, Dihydrotanshinone I], binding was characterised by a dissociation constant (Kd) of 697 nM.

Usually Kd stands for the constant that tells how readily two partners part at equilibrium. A high value points to a looser complex.

Values taken from paper PMC12337087 (Phytotherapy Research, 2025).
